These results are taken from US20110093959A1, “CRYPTOTIS PARVA SCREENING MODEL FOR ANTIEMETIC POTENTIAL” (priority 2008, published 2011).

Entries after “also recorded” stand apart in the source; their conditions may differ.

Holding throughout (type): in vivo, Cryptotis parva
Experiment [1] has as its system Least Shrew. In words: Emetic effect of arachidonic acid metabolites and leukotrienes in the Least Shrew. The settings on record: found experimentally. Here is the method:
Varying doses of leukotriene LTC4 were administered by intraperitoneal injection, and dose-response emetic effects recorded for 30 min post-injection observation period. The graph in FIG. 20 depicts enhancements in the frequency (mean±S.E.M.) of emesis.

The test system of experiment [2] is GR73632-induced emesis and scratching in the Least Shrew. In words: Antagonist interaction study against GR73632 (5 mg/kg, i.p.)-induced emesis and scratching. The note with it: for behavioral effect of antagonist by itself: 20 mg/kg dose, without GR73632. The text has this:
The present protocols were based upon preliminary studies as well as published findings in the Least Shrew. Darmani, 2001a; Darmani et al., 69 Pharmacol. Biochem. Behay. 239-49 (2001b). On the test day, the shrews were allowed to acclimate to the test laboratory for at least one hour prior to experimentation. To habituate the animals to the test environment, each shrew was randomly selected and transferred to a 20 cm×18 cm×21 cm clean clear plastic cage and offered four mealworms (Tenebrio sp.) 30 min prior to experimentation.
The latter doses of SP and GR73632 were chosen for subsequent antagonist interaction studies to pharmacologically characterize the role of NK1 receptors in the mediation of induced emesis by the use of: (1) two selective neurokinin NK1 receptor antagonists (CP99,994 and L733060) (Watson et al., 115 Br. J. Phramacol. 84-94 (1995); Guiard et al., 89 J. Neurochem. 54-63 (2004)); (2) an NK2 receptor antagonist (GR159897) (Beresford et al., 272 Eur. J. Pharmacol. 241-48 (1995)); and (3) an NK3 receptor antagonist (SB218795) (Salthun-Lassalle et al., 1995).
For the above drug interaction studies, different doses (i.p.) of either CP99,994 (0, 5, 10, and 20 mg/kg, n=10-14 shrews per group); L733060 (0, 5, 10, and 20 mg/kg, n=10-14 shrews per group), GR159897 (0 mg/kg and 20 mg/kg, n=8 per group) or SB218795 (0 or 20 mg/kg, n=7-8 per group) were administered to different groups of shrews 30 min prior to injection of an emetic dose (5 mg/kg, i.p.) of the NK1-receptor agonist GR73632. Emesis and scratchings were recorded for 30 min immediately following GR73632 administration as described above. The antiemetic effect of CP99,994 (0, 5, and 10 mg/kg, n=9-10 animals per group) was also investigated in a similar manner against SP (50 mg/kg, i.p.)-induced emesis.
(§1) The data on the frequency of emesis and scratchings were analyzed by the Kruskal-Wallis (KW) nonparametric one-way analysis of variance (ANOVA) and post hoc analysis by Dunn's multiple comparisons test or Mann-Whitney test. A P value of <0.05 was necessary to attain statistical significance. The incidence of emesis (number of shrews vomiting) was analyzed by the Fisher's exact test to determine whether there were differences between groups. When appropriate, pairwise comparisons were also made by this method. Two-way analysis of variance using the Kruskal-Wallis or Fisher's exact tests were initially utilized to respectively analyze the dose-response results of GR73632 on emesis and scratching behaviors, and percentage of shrews vomiting in saporin- and corresponding saline-pretreated control shrews. […] For some emesis data, the two-tailed Mann-Whitney test was used. The SP tissue concentration data were analyzed by a one-way ANOVA followed by Dunnett's t test as post hoc analysis. Fos-IR was quantified by counting immunopositive nuclei within each hemisection containing the region of interest (ROI). The number of nuclei was averaged across sections with the ROI for each animal, and the group mean and standard error obtained.

The subject of experiment [3] is CIS-induced emesis in the Least Shrew. In words: Tropisetron, Δ^9-THC and dexamethasone alone or in combination against CIS (20 mg/kg)-induced emesis, 60 min. The procedure:
Briefly, all animals were randomly divided into two groups. On the test day, shrews were habituated to the laboratory environment for at least 1 hr prior to experimentation. […] All drugs were administered at a volume of 0.1 ml/10 g body weight. Immediately following the second injection, each shrew was placed in the observation cage, and both the number of animals vomiting per group and the frequency of vomiting (oral ejections of food or liquid) were recorded for the next 60 min
Poisson regression and logistic regression analyses were employed for two-way analysis of vomiting frequency and protection from emesis, respectively. […] Data regarding the frequency of emesis were analyzed by the Kruskal-Wallis nonparametric one-way analysis of variance (ANOVA), and post hoc analysis by Dunn's multiple comparisons test. The incidence of emesis (number of animals vomiting) was analyzed by Fisher's exact test to determine whether there were differences between groups, and when appropriate, pairwise comparisons were also made. A p value of<0.05 was necessary to achieve statistical significance.

In experiment [4] the test system is Least Shrew. Kind of experiment: Dose response emesis and scratching studies with tachykinin receptor agonists.
Excerpt: The present protocols were based upon preliminary studies as well as published findings in the Least Shrew. Darmani, 2001a; Darmani et al., 69 Pharmacol. Biochem. Behay. 239-49 (2001b). On the test day, the shrews were allowed to acclimate to the test laboratory for at least one hour prior to experimentation. To habituate the animals to the test environment, each shrew was randomly selected and transferred to a 20 cm×18 cm×21 cm clean clear plastic cage and offered four mealworms (Tenebrio sp.) 30 min prior to experimentation. […]
as §1

Where [5] appears, read: 1 mg/kg i.p., administered alone.
[6] abbreviates: 5 mg/kg i.p., administered alone.
[7] abbreviates: tropisetron 0.1 mg/kg with 0.5 mg/kg Δ^9-THC.
Where [8] appears, read: tropisetron 0.25 mg/kg with 0.25 mg/kg Δ^9-THC.
[9] abbreviates: tropisetron 0.25 mg/kg with 0.5 mg/kg Δ^9-THC.
Setting [10] is: tropisetron 1 mg/kg with 0.1 mg/kg Δ^9-THC.
Setting [11] is: tropisetron 1 mg/kg with 0.25 mg/kg Δ^9-THC.
Where [12] appears, read: tropisetron 1 mg/kg with 0.5 mg/kg Δ^9-THC.
The mark [13] stands for this setting: tropisetron 5 mg/kg with 0.1 mg/kg Δ^9-THC.
The mark [14] stands for this setting: tropisetron 5 mg/kg with 0.25 mg/kg Δ^9-THC.
[15] abbreviates: tropisetron 5 mg/kg with 0.5 mg/kg Δ^9-THC.

For `O=C(O)CCC/C=C\C[C@H]1C(=O)C[C@@H](O)[C@@H]1/C=C/[C@@H](O)CCCCCO` [20 Hydroxy PGE2], the “emesis in the Least Shrew” value in the experiment on Least Shrew [1] is on record as “produce emesis”.

For `O=C(O)CCC/C=C\C[C@@H]1[C@@H](/C=C/[C@@H](O)CCCCCO)[C@H](O)C[C@@H]1O` [20 Hydroxy PGE2α], the “emesis in the Least Shrew” value with Least Shrew [1] is reported as “produce emesis”.

As for `COC1(C[S@@+]([O-])c2ccccc2)CCN(CCc2c[nH]c3ccc(F)cc23)CC1` [GR159897, 5-Flouro-3-[2-[4-methoxy-4-[[(R)-phenylsulphinyl]methyl]-1-piperidinyl]ethyl]-1H-indole], in experiment [2], the “behavioral effect of antagonist by itself” value was “did not produce any behavioral effect”. Besides, in experiment [2] (antagonist 20 mg/kg i.p.), the “enhancement of frequency of GR73632-induced emesis” value was “did not attain significance”, the “enhancement of frequency of GR73632-induced scratching” value was “did not attain significance” and the “percentage of shrews vomiting in response to GR73632” value is listed as “failed to affect”.

Regarding `Cl.FC(F)(F)c1cc(CO[C@H]2CCCN[C@H]2c2ccccc2)cc(C(F)(F)F)c1` [L733060], the “reduction in frequency of GR73632-induced emesis” value is reported as 62% in experiment [2] (antagonist 5 mg/kg i.p.), 74% in experiment [2] (antagonist 10 mg/kg i.p.) and 95% in experiment [2] (antagonist 20 mg/kg i.p.). Besides, the “reduction in percentage of shrews vomiting in response to GR73632” value in experiment [2] (antagonist 5 mg/kg i.p.) is 33%; in experiment [2] (antagonist 10 mg/kg i.p.) it was 53%; in experiment [2] (antagonist 20 mg/kg i.p.) it was 73%. In addition, the “reduction of GR73632-induced scratchings” value in experiment [2] (antagonist 5 mg/kg i.p.) came to 63%; in experiment [2] (antagonist 10 mg/kg i.p.), 69%; in experiment [2] (antagonist 20 mg/kg i.p.) it was 54%. Also, the “onset of first emesis induced by GR73632” value in experiment [2] (at highest tested effective antiemetic doses) is “only delayed the onset of first emesis”.

On to `CCCCC/C=C\C\C=C/C=C/C=C/[C@@H]1O[C@H]1CCCC(=O)O` [LTA4], for which the “emesis in the Least Shrew” value in the experiment with Least Shrew [1] is given as “non-emetic”.

For the molecule `CCCCC/C=C\C[C@@H](O)/C=C/C=C/C=C\[C@@H](O)CCCC(=O)O` [LTB4], the “emesis in the Least Shrew” value in the experiment with Least Shrew [1] was “non-emetic”.

Consider `CCCCC/C=C\C\C=C/C=C/C=C/[C@@H](SC[C@H](NC(=O)CC[C@H](N)C(=O)O)C(=O)NCC(=O)O)[C@@H](O)CCCC(=O)O` [LTC4], for which the “emesis in the Least Shrew” value in the experiment with Least Shrew [1] is “potent emetogens; also recorded: produce emesis”.

For `CCCCC/C=C\C\C=C/C=C/C=C/[C@@H](SC[C@H](N)C(=O)NCC(=O)O)[C@@H](O)CCCC(=O)O` [LTD4], the “emesis in the Least Shrew” value with Least Shrew [1] is given as “potent emetogens; also recorded: produce emesis”.

Consider `CCCCC/C=C\C\C=C/C=C/C=C/[C@@H](SC[C@H](N)C(=O)O)[C@@H](O)CCCC(=O)O` [LTE4], for which, in the experiment on Least Shrew [1], the “emesis in the Least Shrew” value is reported as “non-emetic”.

As to `CCCCC/C=C\C\C=C/C=C/C=C/[C@@H](SC[C@H](NC(=O)CC[C@@H](N)C(=O)O)C(=O)O)[C@@H](O)CCCC(=O)O` [LTF4], the “emesis in the Least Shrew” value in the experiment with Least Shrew [1] is “non-emetic”.

With `CCCCC[C@H](O)/C=C/[C@H]1C(=O)C[C@H](O)[C@@H]1C/C=C\CCCC(=O)O` [PGD2], the “emesis in the Least Shrew” value in the experiment with Least Shrew [1] is “non-emetic”.

In the case of `COC(=O)C(NC(=O)c1cc(-c2ccccc2)nc2ccccc12)c1ccccc1` (stereo not drawn) [SB218795], in experiment [2], the “behavioral effect of antagonist by itself” value was “did not produce any behavioral effect”. Besides, in experiment [2] (antagonist 20 mg/kg i.p.), the “enhancement of frequency of GR73632-induced emesis” value is on record as “did not attain significance”, the “enhancement of frequency of GR73632-induced scratching” value is given as “did not attain significance” and the “percentage of shrews vomiting in response to GR73632” value was “failed to affect”.

Consider `CN1[C@@H]2CC[C@H]1C[C@@H](OC(=O)c1c[nH]c3ccccc13)C2` [tropisetron], for which the “reduction in frequency of CIS-induced emesis” value in experiment [3] (0.25 mg/kg i.p., administered alone) was 79%; in experiment [3] (setting [5]), 94%; in experiment [3] (setting [6]), 99.8%; in experiment [3] (tropisetron 0.025 mg/kg with 0.25 mg/kg Δ^9-THC), 60%; in experiment [3] (tropisetron 0.1 mg/kg with 0.25 mg/kg Δ^9-THC) it was 59.8%; in experiment [3] (setting [7]), 57.5%. Also, the “reduction in frequency of CIS-induced emesis” value in experiment [3] (tropisetron 0.25 mg/kg with 0.1 mg/kg Δ^9-THC, vs 0 mg/kg tropisetron) was 88%; in experiment [3] (setting [8]), 84%; in experiment [3] (setting [9]), 70%; in experiment [3] (setting [10]), 90.6%; in experiment [3] (setting [11]), 100%; in experiment [3] (setting [12]) it was 70.1%. Moreover, the “reduction in frequency of CIS-induced emesis” value in experiment [3] (setting [13]) was determined as 89.4%; in experiment [3] (setting [14]) it was 93%; in experiment [3] (setting [15]) it was 69.8%. For the same molecule, the “reduction in percentage of shrews vomiting in response to CIS” value is 75% in experiment [3] (setting [5]); 92% in experiment [3] (setting [6]); 58% in experiment [3] (setting [7]); 50% in experiment [3] (setting [8]); 50% in experiment [3] (setting [9]); 78% in experiment [3] (setting [10]). Also, the “reduction in percentage of shrews vomiting in response to CIS” value was found to be 100% in experiment [3] (setting [11]); 83% in experiment [3] (setting [12]); 71% in experiment [3] (setting [13]); 70% in experiment [3] (setting [14]); 58% in experiment [3] (setting [15]). Further, in experiment [3] (drug by itself, dose-dependent), the “reduction in number of shrews vomiting, over tested doses” value was “completely protected”. Besides, in experiment [3] (tropisetron, all doses, combined with 1 mg/kg or 5 mg/kg Δ^9-THC), the “effect on frequency of CIS-induced vomiting” value was “None of the cited doses of tropisetron had a significant effect”. Besides, the “effect on percentage of shrews vomiting” value in experiment [3] (tropisetron, any dose, with 1 mg/kg and 5 mg/kg Δ^9-THC) is “no dose of tropisetron significantly altered”.

“[Lys^3, Gly^8-R-gamma-lactam-leu^9]Neurokinin-A (3-10) [GR64349]”: the “produced emesis or significant scratchings” value with Least Shrew [4] (doses up to 10 mg/kg i.p.) is given as “neither”.

As to “[Sar^9, Met (O2)”]-Substance P [Sar Met-SP]”, the “percentage of shrews vomiting” value in the experiment with Least Shrew [4] (1 mg/kg i.p.) turned out to be 20%; in the experiment on Least Shrew [4] (5 mg/kg i.p.), 33%; in the experiment on Least Shrew [4] (10 mg/kg i.p.), 0%.

As for “acetyl-[Arg, Sar^9, Met (O2)^11]-SP (6-11) [ASMSP]”, the “percentage of shrews vomiting” value in the experiment with Least Shrew [4] (5 mg/kg i.p.) worked out at 37%; with Least Shrew [4] (10 mg/kg i.p.), 50%; in the experiment on Least Shrew [4] (20 mg/kg i.p.), 50%.
